As usually defined, the IC50 is the concentration needed to halve the response being measured. For orientation: amount remaining means the share of the starting amount still present when the sample was taken. Low values mean more turnover, high ones less turnover.

Consider eight compounds from patent US20220089663A1, “PROTEINS AND FLUOROPHORE-CONTAINING COMPOUNDS SELECTIVE FOR NaV1.7” (MEMORIAL SLOAN KETTERING CANCER CENTER, priority 2019, published 2022).

For one data set, the target named is T1, hNav1.7 (Homo sapiens, UniProt Q15858).
T1 construct: host or cells: HEK293
T1 sequence (Q15858 whole entry): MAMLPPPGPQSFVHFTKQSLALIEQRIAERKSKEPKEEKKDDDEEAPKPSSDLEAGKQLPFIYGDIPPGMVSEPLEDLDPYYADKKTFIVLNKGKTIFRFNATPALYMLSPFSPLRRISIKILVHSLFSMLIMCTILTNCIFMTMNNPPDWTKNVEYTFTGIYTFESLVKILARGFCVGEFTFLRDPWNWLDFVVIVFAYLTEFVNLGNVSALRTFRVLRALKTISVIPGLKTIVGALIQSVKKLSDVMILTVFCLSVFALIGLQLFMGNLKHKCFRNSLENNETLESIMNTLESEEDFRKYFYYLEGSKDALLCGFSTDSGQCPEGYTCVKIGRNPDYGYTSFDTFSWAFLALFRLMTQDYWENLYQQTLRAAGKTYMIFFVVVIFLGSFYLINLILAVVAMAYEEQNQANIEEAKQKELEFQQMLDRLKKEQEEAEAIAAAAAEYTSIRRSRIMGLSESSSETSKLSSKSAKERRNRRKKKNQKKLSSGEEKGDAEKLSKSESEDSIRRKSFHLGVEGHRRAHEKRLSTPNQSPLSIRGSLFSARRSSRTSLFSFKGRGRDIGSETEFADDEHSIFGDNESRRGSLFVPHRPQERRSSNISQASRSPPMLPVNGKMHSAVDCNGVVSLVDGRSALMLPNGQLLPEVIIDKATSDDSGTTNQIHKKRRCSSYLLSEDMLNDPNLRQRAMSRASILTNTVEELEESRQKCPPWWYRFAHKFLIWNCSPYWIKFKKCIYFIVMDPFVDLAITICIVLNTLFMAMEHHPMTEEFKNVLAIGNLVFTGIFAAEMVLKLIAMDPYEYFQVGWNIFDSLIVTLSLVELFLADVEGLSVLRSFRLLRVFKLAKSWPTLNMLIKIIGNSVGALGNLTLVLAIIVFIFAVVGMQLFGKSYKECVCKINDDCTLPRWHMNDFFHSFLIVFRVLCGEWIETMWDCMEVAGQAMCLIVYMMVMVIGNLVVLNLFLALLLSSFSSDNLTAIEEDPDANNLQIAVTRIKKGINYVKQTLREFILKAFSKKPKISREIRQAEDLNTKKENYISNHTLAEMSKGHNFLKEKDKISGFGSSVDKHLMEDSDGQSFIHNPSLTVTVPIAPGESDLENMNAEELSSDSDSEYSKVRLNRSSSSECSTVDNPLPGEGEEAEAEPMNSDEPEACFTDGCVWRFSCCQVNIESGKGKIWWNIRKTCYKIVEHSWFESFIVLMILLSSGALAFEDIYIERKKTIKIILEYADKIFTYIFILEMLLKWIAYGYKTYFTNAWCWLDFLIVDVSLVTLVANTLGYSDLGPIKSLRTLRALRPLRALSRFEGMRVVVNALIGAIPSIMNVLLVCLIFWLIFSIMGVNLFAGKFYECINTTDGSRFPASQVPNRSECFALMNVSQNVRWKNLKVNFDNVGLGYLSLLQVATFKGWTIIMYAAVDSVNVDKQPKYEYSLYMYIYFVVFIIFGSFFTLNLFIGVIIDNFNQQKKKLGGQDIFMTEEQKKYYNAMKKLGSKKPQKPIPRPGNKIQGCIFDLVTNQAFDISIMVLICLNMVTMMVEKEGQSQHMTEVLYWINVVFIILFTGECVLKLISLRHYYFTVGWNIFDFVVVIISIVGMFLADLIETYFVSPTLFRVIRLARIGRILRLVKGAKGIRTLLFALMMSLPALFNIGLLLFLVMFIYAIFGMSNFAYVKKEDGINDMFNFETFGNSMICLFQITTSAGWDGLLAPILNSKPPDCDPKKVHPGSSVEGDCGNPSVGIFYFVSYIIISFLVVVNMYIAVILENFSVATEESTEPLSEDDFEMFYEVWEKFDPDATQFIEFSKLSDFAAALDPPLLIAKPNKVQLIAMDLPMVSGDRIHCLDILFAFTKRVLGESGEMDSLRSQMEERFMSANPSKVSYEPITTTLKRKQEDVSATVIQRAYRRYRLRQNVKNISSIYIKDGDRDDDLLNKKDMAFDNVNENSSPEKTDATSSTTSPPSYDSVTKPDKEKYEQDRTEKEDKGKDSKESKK
T1 sequence (Q07699 19-218, further chain): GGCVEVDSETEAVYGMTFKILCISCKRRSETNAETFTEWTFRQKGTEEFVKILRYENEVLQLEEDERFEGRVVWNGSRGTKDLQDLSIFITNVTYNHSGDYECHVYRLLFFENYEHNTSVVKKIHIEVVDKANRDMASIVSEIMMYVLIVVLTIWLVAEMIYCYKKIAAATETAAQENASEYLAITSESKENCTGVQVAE
Nature of the data set: automated whole-cell patch clamp (QPatch 16X), HEK293-hNav1.7. Format: cell-based.

Data set [1] in a line: acute in vivo toxicity after intravenous injection. The arrangement: species or system mouse. As for the experimental part: Acute in vivo toxicity. All animal experiments were performed in accordance with protocols approved by the Institutional Animal Care and Use Committee of MSK and followed the National Institute of Health guidelines for animal welfare. Six athymic nude mice 6-8 weeks old were purchased from Envigo RMS, Inc. An intravenous (IV) catheter was placed in tail vein of each mouse and they were anesthetized using Isoflurane (Novaplus, Telangana-India). Anesthesia was maintained using 1.0 to 1.5 L/min of Isoflurane and 2 L/min of oxygen. Three animals were injected with 68 μM, 7 nmol Hsp1a-FL in 100 μL of PBS, and the other three with […], of PBS. Animals were monitored using a rodent surgical monitor (Indus instruments, Houston, Tex.) before, during, and up to 16 minutes after injection. Numeric data points represent averaged values of 5±1 seconds duration. Data was collected before injection, 15 seconds after injection, 5 minutes after injection and 15 minutes after injection. Mouse body core temperature was measured by placing a rectal probe and electronically regulated via a surgical platform. The high-resolution electrocardiogram (EKG) was measured by placing non-invasive electrodes on the 4 paws and electrical contact was assured using a conducting gel (Electrode cream, Indus instruments, Houston, Tex.). Heart rate was automatically calculated from the R-R peaks derived from the EKG signal. Peripheral capillary oxygen saturation (SpO2) was non-invasively measured by placing a clip sensor on the animal's left thigh.
Statistical Analysis. Data were statistically analyzed by generalized estimating equations followed by LSD post hoc test when appropriate using SPSS 23.0. During animal toxicity studies, data points representing loss of signal were excluded from the analysis. Loss of signal was defined by a brief contact loss between the monitoring equipment and the mice (creating a “false” zero or −1 result). Loss of signal was corrected by placing the electrode in close contact to the mice. Average and standard deviations were calculated for each mouse.
Unless otherwise stated, data points represent mean values and error bars represent the standard deviation of biological replicates (mean±SEM). All p-values were calculated using a Student's unpaired t-test. Statistical significance was considered for p-values<0.05 and as follows: ns=not significant, *p<0.05, **p<0.01, ***p<0.001. Mann-Whitney tests were used for analysis of the unpaired samples (e.g. vital signs in mice injected with Hsp1a and mice from the control group) and the Wilcoxon test was used for analysis of paired samples (e.g. vital signs from same mouse before and after injection). Statistical significance was determined with alpha=0.05. Analysis and figures were prepared in GraphPad Prism 8.

Another data set can be described thus: in vitro. The settings on record: human, serum.
The conditions of data set [2]: 10 μM, human serum, 37° C.
The next data set has as its system mouse sciatic nerves. Nature of the data set: epifluorescence imaging (IVIS Spectrum) of sciatic nerves and organs 30 min after injection. The class given is in vivo. The settings on record: 30 minutes after systemic injection. The protocol: Animal Model. Female athymic nude mice (4-8 week-old, athymic-Nude (outbred) (Stock #: 088; Envigo, USA) were allowed to acclimatize at the Memorial Sloan Kettering Cancer Center (MSK) vivarium for 1 week with ad libitum food and water prior to the experimental procedure. For imaging experiments, animals were sacrificed 30 min post-tail vein injection of Hs1a-FL, Hs1a/Hs1a-FL, Hsp1a-FL, Hsp1a/Hsp1a-FL, or PBS. All animal experiments were performed in accordance with institutional guidelines and approved by the IACUC of MSK, following NIH guidelines for animal welfare.
Epifluorescence Imaging. Animals were intravenously injected with Hsp1a-FL (7 nmol, 68 μM of Hsp1a-FL in 100 μL of PBS, n=9), or Hs1a-FL (4 nmol, 45 μM of Hs1a-FL in 100 μL of PBS, n=3). To assess the specificity of the Hsp1a-FL or Hs1a-FL accumulation, animals were injected with a combination of Hsp1a and Hsp1a-FL (Hsp1a-FL, 68 μM, 7 nmol and Hsp1a 204 μM, 21 nmol in 100 μL PBS, n=9), Hs1a and Hs1a-FL (Hs1a-FL, 45 μM, 4 nmol and Hs1a, 120 μM, 12 nmol in 100 μL PBS, n=3) or PBS (n=9). Animals were sacrificed 30 min post-injection and epifluorescence images obtained. Epifluorescence images of the right sciatic nerve (RSN) and the left sciatic nerve (LSN) were obtained in situ. Epifluorescence of the biodistribution of the peptides in excited RSN, LSN, muscle, heart, kidney, liver, and brain were acquired with IVIS Spectrum (PerkinElmer) using a predefined GFP filterset (e.g., excitation=465/30 nm, emission=520-580 nm) based on the particular fluorophore employed in the compounds. Autofluorescence was removed through spectral unmixing. Semiquantitative analysis of the Hsp1a-FL or Hs1a-FL signal was conducted by measuring the average radiant efficiency (in units of unit [p/s/cm^2/sr]/[μW/cm^2]) in regions of interest (ROIs) that were placed on all resected organs under white light guidance.

For the compound `CC[C@H](C)[C@H](NC(=O)[C@H](CCCCN)NC(=O)[C@@H]1CSSC[C@@H]2NC(=O)[C@@H]3CCCN3C(=O)[C@H](CCCNC(=N)N)NC(=O)[C@H](CCC(=O)O)NC(=O)[C@H](CO)NC(=O)[C@H](CC(=O)O)NC(=O)[C@@H]3CSSC[C@H](NC(=O)[C@H](C(C)C)NC(=O)[C@H](CC(C)C)NC(=O)CNC(=O)[C@H](CCC(=O)O)NC(=O)[C@H](CSSC[C@H](NC(=O)[C@@H](N)Cc4ccc(O)cc4)C(=O)N[C@@H](CCC(N)=O)C(=O)N[C@@H](CCCCN)C(=O)N[C@@H](Cc4ccccc4)C(=O)N[C@@H](CC(C)C)C(=O)N[C@@H](Cc4c[nH]c5ccccc45)C(=O)N[C@@H]([C@@H](C)O)C(=O)N3)NC2=O)C(=O)N[C@@H](CCCNC(=N)N)C(=O)N[C@@H](CC(C)C)C(=O)N[C@@H](Cc2c[nH]c3ccccc23)C(=O)N1)C(=O)N[C@@H](CC(N)=O)C(N)=O` [Hsp1a], the “pIC50 difference to sHsp1a on hNav1.7” value on hNav1.7 is listed as “no significant pIC50s difference”. Besides, the IC50 on hNav1.7 (HEK293 cells stably expressing human channel, read-out: IC50 Nav1.7) stood at 13 nM. Also, the average core temperature in data set [1] (15 seconds post injection) came out at 34.5 °C; in data set [1] (5 min post-injection), 34.6 °C; in data set [1] (15 minutes post-injection), 34.6 °C. The EKG pattern entry in data set [1] (before and up to 16 minutes after injection) was “No changes were observed”.
Consider `CSCC[C@@H]1NC(=O)[C@H](CC(C)C)NC(=O)[C@H](CCCNC(=N)N)NC(=O)[C@H](CO)NC(=O)[C@@H]2CSSC[C@@H]3NC(=O)[C@H](CO)NC(=O)CNC(=O)[C@H]([C@@H](C)O)NC(=O)[C@H](CSSC[C@H](N)C(=O)N[C@@H](CCCCN)C(=O)NCC(=O)N[C@@H](CCCCN)C(=O)NCC(=O)N[C@@H](C)C(=O)N[C@@H](CCCCN)C(=O)N2)NC(=O)[C@H](CSSC[C@@H](C(N)=O)NC(=O)[C@H](CCCCN)NC(=O)CNC(=O)[C@H](CO)NC(=O)[C@H](CCCNC(=N)N)NC3=O)NC(=O)[C@H](CC(=O)O)NC(=O)[C@H](Cc2ccc(O)cc2)NC1=O` [MVIIA], for which, in the data set “in vitro”, the fraction remaining at 24 h came out at 50%.
As to `CC[C@H](C)[C@@H]1NC(=O)[C@H](CCCNC(=N)N)NC(=O)[C@H](CC(=O)O)NC(=O)[C@H](CCSC)NC(=O)[C@H](CCCNC(=N)N)NC(=O)CNC(=O)CNC(=O)[C@H](Cc2ccccc2)NC(=O)[C@@H](NC(=O)[C@H](CO)NC(=O)[C@H](CO)NC(=O)[C@H](CCCNC(=N)N)NC(=O)[C@H](CCCNC(=N)N)NC(=O)[C@H](CC(C)C)NC(=O)[C@@H](N)CO)CSSC[C@@H](C(=O)N[C@@H](CC(N)=O)C(=O)N[C@@H](CO)C(=O)N[C@@H](Cc2ccccc2)C(=O)N[C@@H](CCCNC(=N)N)C(=O)N[C@@H](Cc2ccc(O)cc2)C(=O)O)NC(=O)CNC(=O)[C@H](CC(C)C)NC(=O)CNC(=O)[C@H](CO)NC(=O)[C@H](CCC(N)=O)NC(=O)[C@H](C)NC(=O)CNC1=O` [hANP, reference compound], the “time of incubation in which degraded” value in data set [2] lay in the range of 1 to 2 h.
On to “YCQK(BODIPY665)FLWTCDSERPCCEGLVCRLWCKIN-NH2 (N-terminal YCQK(BODIPY665) extension; C-terminal amide) [Hsp1a-BODIPY665]”, for which the “biodistribution in various tissues” value in the data set on mouse sciatic nerves is listed as “limited to the peripheral nervous system”.
With “YCQK(CY7.5)FLWTCDSERPCCEGLVCRLWCKIN-NH2 (N-terminal YCQK(CY7.5) extension; C-terminal amide) [Hsp1a-CY7.5]”, the “biodistribution in various tissues” value in the data set with mouse sciatic nerves is reported as “limited to the peripheral nervous system”.
Same read-out and setting: next, “YCQK(DY-684)FLWTCDSERPCCEGLVCRLWCKIN-NH2 (N-terminal YCQK(DY-684) extension; C-terminal amide) [Hsp1a-DY-684]”: “limited to the peripheral nervous system”; “YCQK(IR-800)FLWTCDSERPCCEGLVCRLWCKIN-NH2 (N-terminal YCQK(IR-800) extension; C-terminal amide) [Hsp1a-IR800]”: “limited to the peripheral nervous system”.
The same measure, in the same setting: next, “YCQK(Jane1ia669)FLWTCDSERPCCEGLVCRLWCKIN-NH2 (N-terminal YCQK(Janelia669) extension; C-terminal amide) [Hsp1a-Janelia669]”: “limited to the peripheral nervous system”.
